Where “and” joins values, the source holds several entries; their conditions need not be identical. Equal values may be shown once. Where a name gives a salt, the structure may show the parent alone. One block for each compound: values may come before it.
How the values were obtained:
[1] = system: papillary muscles from Chronic heart failure rats; experiment: Inotropic and lusitropic response of isolated papillary muscles from post-MI Chronic heart failure rats (organ bath, 1 Hz); format: cell-based, rat; details: for RT (TR20−TPF), relaxation time / TPF (time to peak force) / TR20 (time to relaxation to 20% level): CHF, serotonin 10 μmol/l, then isoprenaline 100 μmol/l
Procedure: (§1) Male, Wistar rats (Mollegaard Breeding and Research Centre, Skensved, Denmark), weighing about 320 g were intubated and ventilated with 68% N2O, 29% O2 and 2-3% Isofluran (Abbot Laboratories, USA). An extensive myocardial infarction (MI) was induced by a proximal ligation of the left coronary artery. Six weeks later the rats were anaesthetized and ventilated on the respirator with 2.2% Isofluran. Left ventricular pressures were measured (Sjaastad et al., 2000, J. Appl. Physiol, 89: 1445-1454), and Chronic heart failure rats were included in the study if left ventricular end diastolic pressure (LVEDP) was >15 mm Hg. […] The sham-operated animals (SHAM) were subjected to the same surgical procedure but the coronary artery was not ligated.
(§2) Hearts were isolated from the anaesthetized animals (see above) and carefully dissected free of connective tissue and transferred to ice cold 0.9% NaCl and weighed. The aorta was cannulated, and the coronaries were perfused at 31° C. with a relaxing solution containing: (mmol/l) NaCl 118.3; KCl 3.0; CaCl2 0.5; MgSO4 4.0; KH2PO4 2.4; NaHCO3 24.9; glucose 10.0; mannitol 2.2 and equilibrated with 95% O2/5% CO2 at 31° C. (pH 7.4). Posterior left ventricular papillary muscle was ligated
(§3) The muscles were transported to a separate laboratory and mounted in organ baths. […] The papillary muscles were mounted in organ baths containing the relaxing solution and allowed to adapt at 31° C. for about 20 minutes before the solution was changed to one containing the following (in mmol/l): NaCl 119.2; KCJ 3.0; CaCl2 2.0; MgSO4 1.2; KH2PO4 2.4; NaHCO3 24.9; glucose 10.0; mannitol 2.22 and equilibrated with 95% O2/5% CO2 at 31° C. (pH 7.4).
(§4) The muscles were field stimulated with alternating polarity at 1 Hz with impulses of 5 msec duration and current about 20% above individual threshold (10-15 mA, determined in each experiment). The isometrically contracting muscles were stretched to the maximum of their length-tension curve. The force was recorded and analysed as previously described (Skomedal et al., 1997, J. Pharmacol. Exp. Ther. 280: 721-729). The muscles were allowed to equilibrate for 90 minutes. […] Averaged contraction-relaxation cycles (CRC) were calculated for different experimental periods, and these cycles were used to determine descriptive parameters like maximal development of force (dF/dt)max, time to peak force (TPF) and time to relaxation to 20% level (TR2O). Relaxation time (RT) was calculated as TR2O-TPF. (dF/dt)max was used as an index of contractility. Inotropic responses induced by agonists were expressed by increase in (dF/dt)max. RT was used as index of relaxation. Lusitropic responses were expressed as reduction in RT. Mechanical response at the end of the equilibrium period was used as the control response.
(§5) Agonist was added cumulatively or as a single bolus directly to the organ baths and was completely mixed in the solution within 2-3 seconds. […] The different agonists were added directly to the organ baths in increasing concentrations until supramaximal concentrations of agonist were obtained with respect to maximal inotropic response.
(§6) The responses for each concentration of agonist were generally calculated as percent of maximal response. The concentration-response curves constructed from papillary muscle experiment were constructed according to Ariens and Simonis (1964, supra), by estimating centiles (EC10 to EC100) for each single experiment and calculating the corresponding means. This calculation provides mean curves that express the response as fractional response or percent of maximum and display horizontal positioning and the correct mean slope of the curves. The horizontal positioning of the concentration-response curves was expressed as pEC50-values (=−log EC50).

[2] = system: 5-HT2A receptor (Rattus norvegicus); details: ketanserin 0.1 μmol/l
Chain of 5-HT2A receptor (Rattus norvegicus) (Q62758 whole entry): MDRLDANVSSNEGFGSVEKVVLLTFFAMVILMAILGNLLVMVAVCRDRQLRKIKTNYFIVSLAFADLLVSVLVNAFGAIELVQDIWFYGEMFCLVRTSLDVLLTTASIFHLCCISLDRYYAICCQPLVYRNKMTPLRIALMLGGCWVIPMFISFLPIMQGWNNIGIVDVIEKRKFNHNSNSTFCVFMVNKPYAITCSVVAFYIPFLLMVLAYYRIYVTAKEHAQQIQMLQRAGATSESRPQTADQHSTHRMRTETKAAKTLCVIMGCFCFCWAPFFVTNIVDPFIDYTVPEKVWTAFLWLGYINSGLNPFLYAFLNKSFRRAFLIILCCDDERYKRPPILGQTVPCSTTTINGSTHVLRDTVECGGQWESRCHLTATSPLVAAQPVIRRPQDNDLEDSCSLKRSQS
Procedure: as §4, with “RT was used as index of relaxation.” left out, “Mechanical response at the end of the equilibrium period was used as the control response.” left out
The responses for each concentration of agonist were generally calculated as percent of maximal response. […] The horizontal positioning of the concentration-response curves was expressed as pEC50-values (=−log EC50). Data are expressed as mean±standard error of the mean (SEM) and the number of animals expressed as n. The significance levels of differences were calculated according to Students t-test. […]

5-HT4 receptor [3] = target: T1, 5-HT4 receptor (Rattus norvegicus, UniProt Q62758); experiment: Antagonism of the serotonin inotropic response by 5-HT4 antagonists in post-MI rat papillary muscle (reversal, curve shift, Schild Kb); format: cell-based; details: for block of the inotropic response to serotonin: each antagonist added as printed
T1 construct: The papillary muscles were mounted in organ baths; from tissue; host or cells: rat posterior left ventricular papillary muscle (post-MI or aortic-banding heart failure)
T1 sequence (Q62758 whole entry): as above
Procedure: as §4, §5
as §6, with “EC50). Data are expressed as mean±standard error of the mean (SEM) and the number of animals expressed as n. The significance levels of differences were calculated according to Students t-test. P<0.05 is considered statistically significant. The inhibition constants Kb were calculated from the Schild equation, based on the relative shifts of the concentration-response curves for receptor stimulation.” for “EC50).”

[4] = system: post-infarction congestive heart failure (CHF) rats; experiment: Six-week treatment of post-infarction CHF rats with a 5-HT4 antagonist, papillary muscle function afterwards; format: in vivo, rat; details: 50 mM SB207266 in s.c. miniosmotic pumps, six weeks
Excerpt: An extensive myocardial infarction (MI) was induced in 320 g male Wistar rats under anaesthesia (68% N2O, 29% O2 and 2-3% Isofluran) by a proximal ligation of the left coronary artery (Sjaastad et al. 2003, supra). Three days later, rats were included in the study if the rats had both clinical signs of congestive heart failure (tachypnoe and forced ventilation) and a large myocardial infarction as verified by echocardiography. Rats included in the study were randomized blindly to placebo or treatment. […]
After six weeks of treatment, the animals were again placed under Isofluran anaesthesia (68% N2O, 29% O2 and 2-3% Isofluran) with temperature control for echocardiographic and hemodynamic measurements, followed by euthanasia. Posterior left ventricular papillary muscles were then prepared, mounted in organ baths, equilibrated and field stimulated at 1 Hz (Sjaastad et al., 2003 supra) and the contraction-relaxation cycles (CRCs) were recorded and analysed as previously described with respect to maximal developed force (Fmax), maximal development of force (dF/dt)max, time to peak force (TPF), time to relaxation to 20% level (TR20) and relaxation time (RT=TR20-TPF). […]

[5] = system: papillary muscles from sham-operated rats; experiment: Inotropic and lusitropic response of isolated papillary muscles from sham-operated rats; format: cell-based, rat; details: for RT (TR20−TPF), relaxation time / TPF (time to peak force) / TR20 (time to relaxation to 20% level): Sham, N=6, serotonin 10 μmol/l, then isoprenaline 100 μmol/l
Procedure: as §1, §2, §3, §4, §5, §6

[6] = system: papillary muscles from MInf rats; experiment: Inotropic response to serotonin in papillary muscles from MInf rats (infarction without CHF); format: cell-based, rat; details: serotonin 10 μM
Excerpt: The magnitude of the response correlated positively with infarction size up to 30-40% of the inner myocardial surface in MInf animals (FIG. 8A). In MInf hearts with infarct size 30-40% the inotropic effect was of the same magnitude as in CHF hearts which all had infarct size >40%. A positive correlation with infarction size was also observed for 5-HT4(b) and ANP mRNA expression, whereas 5-HT2A mRNA levels were unchanged (FIG. 8B).

5-HT4 receptor [7] = target: T1, 5-HT4 receptor; experiment: 5-HT4 receptor-mediated inotropic response in papillary muscle of CHF rat 6 weeks after aortic banding; format: cell-based; details: serotonin 10 μM; prazosin, timolol, atropine 1 μM each
Procedure: Trans-aortic constriction (aortic banding) of the ascending aorta was induced in 200 g male Wistar rats under anaesthesia, induced by 63% N2O, 32% O2 and 5% Isoflurane and maintained by 66% N2O, 33% O2 and 1-2% Isoflurane. A right-sided thoracotomi was performed through a 3-4 cm long cutaneous incision, the pericardium was opened and the ascending aorta identified and dissected free of surrounding tissue. A ligature was knit around the ascending aorta and a metal probe with diameter 0.9 mm. The metal probe was then removed. The result was a constriction of the ascending aorta with internal diameter about 0.9 mm. The thorax was then closed with 3-0 silk sutures and the skin closed with Dexon 1 sutures. […]
Papillary muscle was extracted from a CHF rat 6 weeks after aortic banding as described above. osterior left ventricular papillary muscle was prepared, mounted in organ bath, equilibrated and field stimulated at 1 Hz (Sjaastad et al. 2003 supra), and the contraction-relaxation cycles (CRCs) were recorded and analysed as previously described (Skomedal et al. 1997, J. Pharmacol Exp Ther 280: 721-729) (Sjaastad et al., 2003, supra) with respect to maximal developed force (Fmax), maximal development of force (dF/dt)max, time to peak force (TPF), time to relaxation to 20% level (TR20) and relaxation time (RT=TR20-TPF).

Structure (SMILES): CN1[C@@H]2CC[C@H]1CC(OC(=O)C(CO)c1ccccc1)C2.CN1[C@@H]2CC[C@H]1CC(OC(=O)C(CO)c1ccccc1)C2.O=S(=O)(O)O (stereo partly shown) [Atropine, atropine sulfate]
inotropic response to serotonin restored by atropine ([1]; 1 μmol/l atropine after serotonin and carbachol, p>0.06 vs serotonin alone): 45.1±5.1% | effect on serotonin-induced changes of TPF, TR2O and RT (contraction-relaxation cycle characteristics) ([1]; cumulative 10 μmol/l serotonin, 30 μmol/l carbachol, 1 μmol/l atropine): re-established the contraction-relaxation cycle characteristics

Structure (SMILES): C[N+](C)(C)CCOC(N)=O [Carbachol, carbamylcholine]
inotropic response to serotonin after carbachol (reversal) ([1]; 30 μmol/l carbachol added after 10 μmol/l serotonin, p<0.01): 4.8±6.5%

shift of the concentration-response curve for serotonin [2]: did not shift
Structure (SMILES): O=C(c1ccc(F)cc1)C1CCN(CCn2c(=O)[nH]c3ccccc3c2=O)CC1 [Ketanserin, 3-[2-[4-(4-fluorobenzoyl)-1-piperidinyl]ethyl]-2,4(1H,3H)-quinazolinedione]

Kb (5-HT4 receptor [3]; 6 week post MI rats, 5 nM antagonist, read-out: pKb (converted)): 0.631 nM
Structure (SMILES): COc1cc(COc2cc(N)c(Cl)cc2C(=O)CCC2CCN(CCNS(C)(=O)=O)CC2)cc(OC)c1 [RS39604, 1-[4-amino-5-chloro-2-(3,5-dimethoxybenzyloxy)phenyl]-3 [1-[2-[(methylsulf-onyl)amino]ethyl]-4-piperidinyl]-1-propanone hydrochloride]
block of the inotropic response to serotonin (5-HT4 receptor [3]; 6 week post MI rats): block the inotropic response to serotonin

pKb (5-HT4 receptor [3]; 6 week post MI rats, 5 nM antagonist): 9.1
Structure (SMILES): O=C(OCCN1CCCCC1)c1c[nH]c2ccccc12 [SB203186, 1-piperidinyl-ethyl-1H-indole-3-carboxylate]
block of the inotropic response to serotonin (5-HT4 receptor [3]; 6 week post MI rats): block the inotropic response to serotonin

Structure (SMILES): CCCCN1CCC(CNC(=O)c2c3n(c4ccccc24)CCCO3)CC1 [SB207266, N-[(1-butyl-4-piperidinyl)methyl]-3,4-dihydro-2H-[1,3]oxazino[3,2-a]indole-locarboxamide hydrochloride]
maximal inotropic response to β-adrenoceptor stimulation (myocardial function) ([4]; vs placebo): trend towards normalisation | duration of the contraction-relaxation cycle ([4]; preliminary data, not shown): trend towards normalisation

Structure (SMILES): CC(C)NC[C@H](O)c1ccc(O)c(O)c1 [isoprenaline, (−)-isoprenaline hemisulphate]
RT (TR20−TPF), relaxation time ([5]; listed as ISO): 75.0 ± 2.5 ms | TPF (time to peak force) ([5]; listed as ISO): 109.3 ± 2.7 ms | TR20 (time to relaxation to 20% level) ([5]; listed as ISO): 174.0 ± 4.9 ms | RT (TR20−TPF), relaxation time ([5]; listed as Iso): 69.4 ± 3.2 % of control | TPF (time to peak force) ([5]; listed as Iso): 87.4 ± 2.3 % of control | TR20 (time to relaxation to 20% level) ([5]; listed as Iso): 74.5 ± 1.7 % of control | positive inotropic response ([5]; isoprenaline, sham-operated animals, mean±SEM, n=6): 111.6±8.6% | inotropic effect (increase in contractile force) ([1]; 10 μmol/l isoprenaline as printed, SEM, n=10): 60.4±5.8% and 58.5±7% | RT (TR20−TPF), relaxation time ([1]; n=10, listed as ISO): 81.0 ± 1.8 ms | TPF (time to peak force) ([1]; n=10, listed as ISO): 123.1 ± 1.6 ms | TR20 (time to relaxation to 20% level) ([1]; n=10, listed as ISO): 204.1 ± 2.9 ms | RT (TR20−TPF), relaxation time ([1]; n=10, listed as Iso): 76.2 ± 1.8 % of control | TPF (time to peak force) ([1]; n=10, listed as Iso): 83.2 ± 1.7 % of control | TR20 (time to relaxation to 20% level) ([1]; n=10, listed as Iso): 80.3 ± 1.9 % of control

Structure (SMILES): Cl.NCCc1c[nH]c2ccc(O)cc12 [serotonin, 5-hydroxytryptamine hydrochloride]
inotropic response to serotonin [6]: elicited an inotropic response qualitatively similar to the response observed in CHF animals | inotropic response to serotonin (5-HT4 receptor [7]): positive inotropic response comparable in magnitude and characteristics to the positive inotropic response to 100 μM isoproterenol | positive inotropic response to serotonin ([5]; 10 μmol/l serotonin, sham-operated animals, n=6): not seen in sham-operated animals | maximum inotropic response induced by serotonin (5-HT4 receptor [3]; pooled average with and without GR113808, SEM, n=12): 18.7±2.4% | increase in contractile force ([1]; 10 μmol/l serotonin, SEM, n=10): 44.5±2.9% | positive inotropic response above control level ([1]; 10 μmol/l serotonin, carbachol experiment, mean±SEM, n=5): 33.7±6.6% | time from addition of serotonin to maximal inotropic response ([1]; 10 μmol/l serotonin, prazosin, atropine and timolol present): 1 to 2 min

Reference: patent US8829028B2, “5-HT4 receptor antagonists for the treatment of heart failure” (Serodus AS, priority 2002, dated 2014)
